These results are taken from patent US20170299579A1, “VITELLINE MEMBRANE AS A MODEL OF THE BLOOD BRAIN BARRIER” (priority 2016, published 2017).

Each structure is given as a SMILES string. Like-named read-outs stand apart in the source and are kept apart here.

A short description of series [1]: Spectrophotometric absorbance of albumen of decalcified quail eggs after incubation with agent. It is filed as in vitro ADME. As for the experimental part:
(§1) An Ultrospect III spectrophotometer (Pharmacia, Cambridge, England) was recently calibrated by Spectrofuge Corporation of North Carolina, Inc. (Durham, N.C.). Blank quartz cuvettes were selected with the smallest deviation in absorbance. Standard solutions of 2.6×10^−3M acetaminophen and 4.4×10^−3 2-cholorprocaine were prepared. Approximate peak ultraviolet wavelengths were determined with the standard solutions in methanol and PBS. Fine adjustment of the optimum wavelength was performed by retrofit of Beer's law plots of the standards and dilutions. Optimum absorbance wavelengths for acetaminophen and 2-chloroprocaine were 300 nm 329 nm, respectively. Optimum absorbance wavelengths for acetaminophen and 2-choroprocaine dissolve in PBS were 319 nm and 340, respectively. (Table 3)
(§2) The decalcified eggs were soaked in solutions for 2 or 12 hours and then placed in a home freezer prior to analysis. The quail eggs were opened with a razor knife and the denatured albumen and yolk were separated. In most samples the vitelline membrane could be easily separated from the yolk. Samples of the denatured albumen and yolk were dissolved in 5 ml of methanol or PBS and centrifuged at 2700 rpm for 5 minutes. The supernatants were then clarified through a 0.2 micrometer filter (MILLEX-FG, Merck Millipore, Ltd). Clarification of the PBS samples was more difficult than the methanol samples. The clear filtrate was placed in quartz cuvettes. Any air bubbles were eliminated and the samples were analyzed in the spectrophotometer. (Tables 4&5)

Series [2] can be described thus: Spectrophotometric absorbance of yolk of decalcified quail eggs after incubation with agent. It is filed as in vitro ADME. Here is the method:
as §1, §2

Series [3] is described as follows: Permeability of vitelline membrane of decalcified quail eggs (agent reaching the yolk), model of the human blood brain barrier.
For series [4] the following is noted: not told.
The conditions of series [5]: not told. This is another data set of the same source.
[6] abbreviates: in PBS, 4.4 × 10^−2 m/l, 340 nm, 12 hours.
Where [7] appears, read: in methanol, 4.4 × 10^−2 m/L, 329 nm, 2 hours.
The mark [8] stands for this setting: in methanol, 4.4 × 10^−2 m/L, 329 nm, 12 hours.

For `CCN(CC)CCOC(=O)c1ccc(N)cc1Cl` [2-Chloroprocaine], the “Albumen (abs)” value is recorded as 0.48 abs in series [1] (setting [6]), 1.86 abs in series [1] (setting [7]) and 2.52 abs in series [1] (setting [8]). In addition, the “Yolk (abs)” value turned out to be 1.04 abs in series [2] (setting [6]), 1.37 abs in series [2] (setting [7]) and 1.71 abs in series [2] (setting [8]). Further, the “Permeability (vitelline membrane)” value is “+” in series [3] (agent in PBS, 2-Chloroprocaine 4 × 10^−2 M, Acetaminophen 2.6 × 10^−1 M, incubation time 12 hours) and “+” in series [3] (agent in methanol, 2-Chloroprocaine 4 × 10−2 M, Acetaminophen 2.6 × 10^−1 M, incubation time 2 & 12 hours). In addition, in series [3] (spectroscopic analysis), the “Crossing of the vitelline membrane” value was “crossed the vitelline membrane”.

Turning to `CN(C)c1ccc(/N=N/c2ccccc2C(=O)O)cc1` [Methyl red], in series [4], the “Permeability (outer and inner membrane)” value is recorded as “+”. Further, the “Permeability (vitelline membrane)” value in series [5] is “−”.

In the case of `CCOCC` [Ether, diethyl ether], the “Permeability (outer and inner membrane)” value in series [4] is listed as “+”.

On to `CN(C)c1ccc(C(=C2C=CC(=[N+](C)C)C=C2)c2ccccc2)cc1` [Malachite green], for which the “Permeability (vitelline membrane)” value in series [3] (0.01M, incubation time 2 hours) was “−”.

Turning to `[K+].[K+].[O]=[Cr](=[O])([O-])[O][Cr](=[O])(=[O])[O-]` [Potassium dichromate], the “Permeability (vitelline membrane)” value in series [3] (0.01M, incubation time 2 hours) is “−”.

As to `CC(=O)Nc1ccc(O)cc1` [Acetaminophen], the “Albumen (abs)” value in series [1] (quail, 2 h) worked out at 2.85 abs. In series [2] (quail, 2 h), the “Yolk (abs)” value is given as 2.40 abs. In series [4], the “Permeability (outer and inner membrane)” value is listed as “+”. In series [5], the “Crossing of the vitelline membrane” value is listed as “crossed the vitelline membrane” and the “Permeability (vitelline membrane)” value was “+”.

Regarding `CCO` [Ethanol], the “Permeability (outer and inner membrane)” value in series [4] is on record as “+”. Moreover, in series [5], the “Crossing of the vitelline membrane” value was “crossed the vitelline membrane” and the “Permeability (vitelline membrane)” value is “+”.

As to `Cc1cc(C2(c3ccc(O)c(C)c3)OS(=O)(=O)c3ccccc32)ccc1O` [Creosol red], the “Permeability (outer and inner membrane)” value in series [4] is recorded as “+”. In addition, in series [5], the “Permeability (vitelline membrane)” value was “−”.

With `CCN(Cc1cccc(S(=O)(=O)[O-])c1)c1ccc(C(=C2C=CC(=[N+](CC)Cc3cccc(S(=O)(=O)[O-])c3)C=C2)c2ccccc2S(=O)(=O)[O-])cc1.[Na+].[Na+]` [FD&C Blue #1], the “Permeability (outer and inner membrane)” value in series [4] was “+”. Moreover, the “Permeability (vitelline membrane)” value in series [5] is on record as “−”.

Regarding `O=C1OC2(c3ccc(O)cc3Oc3cc(O)ccc32)c2ccccc21` [Fluorescein], the “Permeability (outer and inner membrane)” value in series [4] was “+”. Further, the “Permeability (vitelline membrane)” value in series [5] is given as “−”.

Turning to `C=C[C@H]1C[N@@]2CC[C@H]1C[C@H]2[C@H](O)c1ccnc2ccc(OC)cc12` [Quinine], the “Permeability (outer and inner membrane)” value in series [4] was “+”. In series [5], the “Permeability (vitelline membrane)” value is reported as “−”.
